Test results: patent publication EP0419081A2, “Method for protein binding enzyme complementation assays” (MICROGENICS CORPORATION, priority 1989, dated 1991)
Read-outs that look alike come from different tables or passages of the source.

Key:
FBP = biological target: T1, FBP (Bos taurus, UniProt P02702); assay: Folate dose response; type: biochemical; conditions: for 5′- 9′: rate OD₄₂₀ 5 to 9 min, FBP 1:1000, ED14-folate #34
T1 construct: purchased Scripps
Method: The following buffer systems and reagents were used and will be abbreviated as stated below: • 1. Sample buffer; 100 mM sodium phosphate, 20 mM sodium azide and 0.2% BSA. • 2. Assay buffer pH 7.0; 10 mM ethylene glycol tetraacetic acid, 2 mM magnesium acetate, 20 mM sodium azide, 150 mM sodium phosphate, 100 mM potassium phosphate, 0.05% Tween 20, 0.05 mM dithiothreitol, adjusted to pH 7.0. • 3. EA; enzyme acceptor • 4. ED; enzyme donor • 5. FBP Scripps; folate binding protein from Scripps 2.25 mg/ml stock • 6. CPRG; chlorophenol red β-D galactopyranoside • 7. ONPG: 2-nitrophenol β-D galactopyranoside
A folate dose response was elicited as follows. The following reagents were prepared; EA at a concentration of 3750 nM in Assay buffer p8 7.0, ED14-folate (fraction #34) at a concentration of 26.66 nM in Assay/ONPG buffer pH 7.0, FBP at a dilution of 1:1000 in sample buffer and folic acid standards at 0, 2.5, 5.0, 10.0 and 20.0 ng/ml in sample buffer. […] Rates were calculated by subtracting the OD₄₂₀ at 5 min from the OD₄₂₀ at 9 min.

EA23 = tested on: EA23
Method: This example illustrates an immunoassay for thyroxine as analyte using H6-thyroxine conjugate as enzyme-donor, EA23 as enzyme-acceptor, anti-thyroxine antibody and a series of concentrations of thyroxine.
Reagents for the assay were prepared as follows: L-thyroxine standard: 2.6 mg L-thyroxine (Sigma Chemical, St. Louis, MO) was dissolved in 200 µl absolute ethanol and 800 µl 0.15M NaHCO₃ added and the mixture stored at 25°C. Two fold dilutions of thyroxine were prepared in ethanol: 0.15M NaHCO₃ (1:4). L-thyroxine antibody: Antisera to thyroxine (T4) was purchased from Western Chemical Research Corp., Denver, CO. Several lots were tested for titer and an equilibrium constant determined in a radio-immunoassay with IgM Sorb (Enzyme Center, Malden, MA). […] EA23 acceptor-enzyme: 6.3X10-⁷M in storage buffer. Substrate: o-nitrophenyl-β-D-galactopyranoside (ONPG) was dissolved in 2.5 X Z buffer to a final concentration 10 mg/ml solution.
The assay was performed in microtiter plates (Dynatech Cat. #001-012-9200 American Scientific Products, Sunnyvale, CA) and read on a Titertak Multiscan microtiter plate reader fitted with a 414 nm filter (Flow Laboratories, Rockville, MO). To each well was added 100 µl of PM2 buffer containing 0.05% Tween 20 (polyoxyethylene sorbitan monolaurate) (Sigma Chemical Co., St. Louis, MO). To each well was added sequentially 2.5 µl H6-thyroxine conjugate, 2.5 µl of anti-thyroxine antibody, 2.5 µl of the thyroxine standards and 40 µl of EA23.

[1] = tested on: analyte specific antiserum; assay: Immunopurity by precipitation of the enzyme donor conjugate with antibody; type: binding; conditions: % of ED conjugate activity which can be removed by analyte specific antiserum
Method: Immunopurity was determined by precipitation of the enzyme donor conjugate with anti-T4 antibody TgG Sorbheads. The ED is incubated with primary antibody at room temperature for 15 min on a rocker shaker. Secondary antibody is added and incubation continued for 15 min. The suspension is centrifuged and an aliquot of the supernatant is saved for the assay. The above cycle is repeated on the remaining supernatant for a total of five cycles. […] The ED concentration during incubation is 20 nM. Assay concentrations are EA 500 nM; ED, 4 nM; and ONPG, 1mg/ml. Immunopurity is expressed as percent of ED activity precipitable by primary antibody.

EA = assay: Equilibrium specific activity; type: biochemical; conditions: ED and EA incubated together for 18 hours
[2] = tested on: anti-T4 antibody (T4-pool 393A); assay: Immunochemical testing on the Encore, T4 conjugates; type: biochemical
Method: The immunochemical testing was performed on the Encore. […] The ligand concentrations employed are indicated in the legend to the table. The ED and antibody were preincubated on the rotor for 15 min at 37°C. All antibody concentrations were assayed in duplicate. No correction was made for variations of total protein in the assays.

anti-T4 antibody = assay: Affinity constant by ED titration, Scatchard plot, T4 conjugates; type: binding; conditions: ED titration against fixed anti-T4 Ab, no secondary antibody
Method: The Ka was determined as follows: To determine the affinity constant of an antibody for an experimental ED conjugate, an ED titration against a fixed antibody is carried out. Antibody binding to the conjugated ED is monitored by inhibition of formation of active enzyme as indicated by a decrease in chromogenic substrate turnover. The resulting data is plotted in a Scatchard format (Bound/Free vs. [Bound]). The slope of the line generated is equal to ∼KA in L/mole.

T1 sequence (P02702 20-234): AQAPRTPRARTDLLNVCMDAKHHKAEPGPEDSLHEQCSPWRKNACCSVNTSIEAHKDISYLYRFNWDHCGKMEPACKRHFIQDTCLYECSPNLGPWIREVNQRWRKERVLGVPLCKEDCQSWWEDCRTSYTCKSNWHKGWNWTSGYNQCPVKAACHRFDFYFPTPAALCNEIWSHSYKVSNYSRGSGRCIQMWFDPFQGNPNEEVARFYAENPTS

Row | % Mod (FBP; folic acid standard 5.0 ng/ml) | Net (FBP; folic acid standard 5.0 ng/ml) | 5′- 9′ (FBP; folic acid standard 5.0 ng/ml) | % Mod (FBP; folic acid standard 10.0 ng/ml) | Net (FBP; folic acid standard 10.0 ng/ml) | 5′- 9′ (FBP; folic acid standard 10.0 ng/ml) | % Mod (FBP; folic acid standard 20.0 ng/ml) | Net (FBP; folic acid standard 20.0 ng/ml) | 5′- 9′ (FBP; folic acid standard 20.0 ng/ml) | Compound | OD₄₁₅ (EA23; Well 2: ED₄-T4 2.5 µl only, no EA) | OD₄₁₅ (EA23; Well 3: ED₄-T4 2.5 µl, EA 40 µl) | OD₄₁₅ (EA23; Well 4: ED₄-T4 2.5 µl, Antibody 2.5 µl, EA 40 µl) | OD₄₁₅ (EA23; Well 5: ED₄-T4 2.5 µl, Antibody 2.5 µl, Thyroxine 6.25 µg/µl, EA 40 µl) | OD₄₁₅ (EA23; Well 6: ED₄-T4 2.5 µl, Antibody 2.5 µl, Thyroxine 12.5 µg/µl, EA 40 µl) | OD₄₁₅ (EA23; Well 7: ED₄-T4 2.5 µl, Antibody 2.5 µl, Thyroxine 25 µg/µl, EA 40 µl) | Immuno-Purity [1] | Specific Activity (u/mg) (% ED4-T4) Equilibrium (EA) | Immunochemical Testing %I 1/2Sat ([2]; T4-pool 393A at 1:12,000, ED titrated until one-half of Ab binding sites saturated, no secondary antibody) | Immunochemical Testing (0.125 nM Sys [ED]) ([2]; maximum amount of complementation inhibition, ED system concentration 0.125 nM, Ab constant) | Ka (L/mole) x10-9 (anti-T4 antibody)
1 | 13.4% | 52 | 388.5 | 24.1% | 107 | 443.5 | 40.0% | 2255 | 562 | Nc1nc2ncc(CNc3ccc(C(=O)N[C@@H](CCC(=O)O)C(=O)O)cc3)nc2c(=O)[nH]1 [folic acid] | – | – | – | – | – | – | – | – | – | – | –
2 | – | – | – | – | – | – | – | – | – | m-maleimide-benzoyl-L-Thyroxine-ED₄ conjugate [ED4T4] | 0.001 | 0.595 | 0.300 | 0.312 | 0.320 | 0.364 | 96% | 100% | 34% | 47% | 1.97 L/mole x10-9
